Experimental data reported in PMC6214618, “Multimodal Ligand Binding Studies of Human and Mouse G-Coupled Taste Receptors to Correlate Their Species-Specific Sweetness Tasting Properties” (Molecules : A Journal of Synthetic Chemistry and Natural …, 2018).
Peptide text beside a SMILES is read from it.

What was measured:
human T1R2 ATD [1] = biological target: T1, human T1R2 ATD (Homo sapiens, UniProt Q8TE23); test: Circular dichroism (CD) spectroscopy of ligand binding, human T1R2 ATD; details: for Kd: measured by CD, 25 °C, 4.5 μM ATD protein, nonlinear regression at fixed wavelength; for change in CD profile / ellipticity upon ligand addition: His-hT1R2 ATD, 209 and 219 nm
T1 construct: or Ser25-Thr489 in the 8xHis-Tag; made in house
T1 sequence (Q8TE23 25-489): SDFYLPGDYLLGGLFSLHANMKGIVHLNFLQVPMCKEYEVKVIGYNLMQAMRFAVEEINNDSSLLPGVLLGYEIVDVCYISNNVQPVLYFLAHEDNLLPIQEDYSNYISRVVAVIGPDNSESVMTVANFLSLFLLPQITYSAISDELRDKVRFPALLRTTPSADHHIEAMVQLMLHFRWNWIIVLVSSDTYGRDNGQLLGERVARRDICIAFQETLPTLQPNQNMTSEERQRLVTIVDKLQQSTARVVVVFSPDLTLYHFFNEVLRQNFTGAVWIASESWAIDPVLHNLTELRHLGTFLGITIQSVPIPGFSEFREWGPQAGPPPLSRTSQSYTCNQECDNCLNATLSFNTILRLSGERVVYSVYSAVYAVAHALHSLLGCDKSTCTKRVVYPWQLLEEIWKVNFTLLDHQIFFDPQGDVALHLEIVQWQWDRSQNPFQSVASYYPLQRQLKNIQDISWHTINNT
Experimental: CD spectra were recorded at 25 °C on an Model 202SF circular dichroism spectrometer (Aviv, Lakewood, NY, USA) equipped with a Peltier temperature control. Samples were added to a 0.01 cm path length quartz cuvette with a concentration of the ATD (from human and mouse) of about 0.3 mg/mL (4.5 μM) in 10 mM Tris-HCl, 150 mM NaCl, 10% glycerol, pH 7.4. Data was collected every 1 nm with an averaging time of 5 s. The spectral bandwidth was 1 nm. Spectra were corrected for buffer and ligands contributions and converted to mean ellipticity in deg cm^2·dmol^−1. The content of α-helix was computed using the deconvolution program from Chen et al.. […] The KD was calculated by analyzing CD data at a fixed wavelength versus ligand concentration using a nonlinear regression method (see Table 1). MSG was used as a negative control.

mouse T1R2 ATD [2] = biological target: T2, mouse T1R2 ATD (Mus musculus, UniProt Q925I4); test: Intrinsic fluorescence spectroscopy, mouse T1R2 ATD; assay type: binding; details: excitation 280 nm
T2 construct: The mouse 8xHis-Tev-ATD-mT1R2 construct ranged from residues Gly2-Pro466; made in house
T2 sequence (Q925I4 2-465 limits assumed): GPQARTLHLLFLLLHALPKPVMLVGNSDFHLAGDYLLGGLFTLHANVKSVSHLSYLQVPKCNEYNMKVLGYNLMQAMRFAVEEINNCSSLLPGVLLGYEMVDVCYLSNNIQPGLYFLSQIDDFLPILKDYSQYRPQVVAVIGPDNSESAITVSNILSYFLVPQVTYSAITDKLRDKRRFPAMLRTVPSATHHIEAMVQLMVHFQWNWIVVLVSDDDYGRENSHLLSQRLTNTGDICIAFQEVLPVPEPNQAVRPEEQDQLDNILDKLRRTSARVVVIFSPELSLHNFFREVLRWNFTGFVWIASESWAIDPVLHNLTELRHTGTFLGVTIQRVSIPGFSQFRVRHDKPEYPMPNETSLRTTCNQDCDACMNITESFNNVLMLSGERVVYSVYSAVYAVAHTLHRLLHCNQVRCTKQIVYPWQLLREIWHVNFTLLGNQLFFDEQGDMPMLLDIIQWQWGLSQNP
Experimental: (§1) Samples were prepared in the same way as for the CD experiments. Experiments were performed at 25 °C on Carey Eclipse instrument (Agilent, Santa Clara, CA, USA). Spectra were subtracted from the buffer ± ligand backgrounds for presentation. The curves at 340 nm were the best fits of the data obtained by a regression method using Microsoft Excel software (Microsoft, Redmont, WA, USA).

mouse T1R2 ATD [3] = biological target: T2, mouse T1R2 ATD; test: Circular dichroism (CD) spectroscopy of ligand binding, mouse T1R2 ATD; details: mouse His-T1R2 ATD, saturating concentrations (neotame up to 500 μM)
Experimental: Data was collected every 1 nm with an averaging time of 5 s. The spectral bandwidth was 1 nm. Spectra were corrected for buffer and ligands contributions and converted to mean ellipticity in deg cm^2·dmol^−1. The content of α-helix was computed using the deconvolution program from Chen et al.. […] The KD was calculated by analyzing CD data at a fixed wavelength versus ligand concentration using a nonlinear regression method (see Table 1). MSG was used as a negative control.

human T1R2 ATD [4] = biological target: T1, human T1R2 ATD; test: Intrinsic fluorescence spectroscopy, human T1R2 ATD; assay type: binding; details: excitation 280 nm; for change in intrinsic fluorescence intensity: human T1R2 ATD, ligand 0–64 μM
Experimental: as §1

human T1R2 ATD [5] = biological target: T3, human T1R2 ATD (Homo sapiens, UniProt Q8TE23); test: Saturation transfer difference NMR (STD-NMR) binding assay; details: neotame 3–10 mM at 27 °C; MSG at 7–37 °C
T3 construct: The human constructs ranged from residues Asn24-Met494 for human (ATD-hT1R2) in the SUMO fusion; His (N); TEV cleavage site (N); made in house
T3 sequence (Q8TE23 24-494): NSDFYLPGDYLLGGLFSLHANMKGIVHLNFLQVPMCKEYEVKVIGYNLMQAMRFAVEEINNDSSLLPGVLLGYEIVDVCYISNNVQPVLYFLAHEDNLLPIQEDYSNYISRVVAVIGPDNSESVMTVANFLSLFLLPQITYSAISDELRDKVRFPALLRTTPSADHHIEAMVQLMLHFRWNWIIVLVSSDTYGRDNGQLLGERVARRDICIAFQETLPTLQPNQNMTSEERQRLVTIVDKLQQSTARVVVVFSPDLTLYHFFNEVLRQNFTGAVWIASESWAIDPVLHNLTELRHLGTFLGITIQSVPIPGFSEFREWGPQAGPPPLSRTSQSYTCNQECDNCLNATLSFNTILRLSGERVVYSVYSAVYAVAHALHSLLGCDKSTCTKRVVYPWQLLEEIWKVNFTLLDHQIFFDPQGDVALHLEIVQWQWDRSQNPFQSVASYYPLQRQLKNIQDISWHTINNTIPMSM
Experimental: The ligand binding activity of ATD-T1R2 for all ligands was confirmed with a NMR-STD binding assay as previously described. Aliquots of the pure labeled SUMO-T1R2 protein were incubated with desired titrating ligands at 0.5–20 fold molar excess and concentrated to a final concentration of ~0.05 mM in 10 mM phosphate buffer (pH 7.4) containing 150 mM NaCl, 2.7 mM KCl, 5 mM DTT, 5x protease inhibitor (Roche) and 0.05% NaN3. Monosodium glutamate (MSG, non-sweet molecule) was used as a negative control. NMR data were collected on a VNMRS spectrometer (Varian, Palo Alto, CA, USA) operating at 800 MHz and equipped with a cryogenic probe. STD-NMR data collection and analysis was carried out as previously described.

| Structure (SMILES) | Kd (human T1R2 ATD [1]) [µM] | change in intrinsic fluorescence intensity (mouse T1R2 ATD [2]) | change in ellipticity upon ligand addition (mouse T1R2 ATD [3]) | change in intrinsic fluorescence intensity (human T1R2 ATD [4]) | change in CD profile / ellipticity upon ligand addition (human T1R2 ATD [1]) | STD signal / binding (human T1R2 ATD [5]) | EC50 (human T1R2 ATD [4]; h-T1R2 ATD, signal at 336 nm, read-out: ligand concentration at half of the maximal value of fluorescence change) [µM] | EC50 (mouse T1R2 ATD [2]; signal at 336 nm, read-out: half-maximal value of fluorescence intensity decrease) [µM] |
| --- | --- | --- | --- | --- | --- | --- | --- | --- |
| CC1=CC(=O)NS(=O)(=O)O1 [Acetasulfame] | 100 | – | – | – | – | – | – | – |
| N[C@@H](CCC(=O)O)C(=O)[O-].[Na+] [MSG, monosodium glutamate] | – | did not change the intrinsic fluorescence intensity | no change in ellipticity | no change in intrinsic fluorescence intensity | no change | no STD signal | – | – |
| N[C@H](Cc1c[nH]c2ccccc12)C(=O)O [D-Tryptophan] | 500 | – | – | – | – | – | – | – |
| OC[C@H]1O[C@H](O[C@]2(CCl)O[C@H](CCl)[C@@H](O)[C@@H]2O)[C@H](O)[C@@H](O)[C@H]1Cl [Sucralose] | 40 | – | – | decreasing fluorescence intensity | – | – | 5 | – |
| COC(=O)[C@H](Cc1ccccc1)NC(=O)[C@@H](N)CC(=O)O [Aspartame] (HELM PEPTIDE1{D.F.[CO[*:1]]}$$$$V2.0) | > 300 | – | – | – | – | – | – | – |
| OC[C@H]1O[C@@](CO)(O[C@H]2O[C@H](CO)[C@@H](O)[C@H](O)[C@H]2O)[C@@H](O)[C@@H]1O [Sucrose] | 40 | decrease in the fluorescence intensity | small decrease in ellipticity | did not change the fluorescence intensity | small decrease in ellipticity | – | – | 8 |
